Laboratory results reported in patent US20040224958A1, “Pyridopyrimidinone derivatives for treatment of neurodegenerative disease” (priority 2000, published 2004).
Where two headings read alike, the source gives them in different places.

Tests used:
cdk2/cyclinA = cdk2/cyclinA (Homo sapiens, UniProt P24941); test: Cyclin-Dependent Kinase Assay cdk2/cyclinA
Cdk5/p25 = Cdk5/p25 (Homo sapiens, UniProt Q00535); test: Cyclin-Dependent Kinase 5 High Throughput Screening (cdk5-HTS) Assay; assay type: biochemical; conditions: high throughput screen
Summary of the method: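 Cdk5/p25 (1.0 μg/mL) phosphorylates GST-RbCOOH (20 μg/mL) in 50 mM Tris pH 7.4 with 10 mM MgCl2 and 20 μM ATP spiked with [γ33P]ATP, 30 min at room temperature. After EDTA stop, substrate captured on glutathione-coated plates; 33P incorporation counted by scintillation; IC50 determined.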

cdk2/cyclinE = cdk2/cyclinE (Homo sapiens, UniProt P24941); test: Cyclin-Dependent Kinase Assay cdk2/cyclinE
cdc2/cyclinB = cdc2/cyclinB (Homo sapiens, UniProt P06493); test: Cyclin-Dependent Kinase Assay cdc2/cyclinB
Sequence of cdc2/cyclinB (P06493 whole entry): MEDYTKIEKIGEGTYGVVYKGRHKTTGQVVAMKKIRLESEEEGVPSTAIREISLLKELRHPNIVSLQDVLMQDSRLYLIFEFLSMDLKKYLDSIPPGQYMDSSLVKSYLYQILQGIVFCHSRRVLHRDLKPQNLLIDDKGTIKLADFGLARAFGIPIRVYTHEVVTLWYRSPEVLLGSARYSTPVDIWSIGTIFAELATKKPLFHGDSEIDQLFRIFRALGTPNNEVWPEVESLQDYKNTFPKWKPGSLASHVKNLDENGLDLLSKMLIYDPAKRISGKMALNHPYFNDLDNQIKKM
Sequence of cdc2/cyclinB (P14635 whole entry, further chain): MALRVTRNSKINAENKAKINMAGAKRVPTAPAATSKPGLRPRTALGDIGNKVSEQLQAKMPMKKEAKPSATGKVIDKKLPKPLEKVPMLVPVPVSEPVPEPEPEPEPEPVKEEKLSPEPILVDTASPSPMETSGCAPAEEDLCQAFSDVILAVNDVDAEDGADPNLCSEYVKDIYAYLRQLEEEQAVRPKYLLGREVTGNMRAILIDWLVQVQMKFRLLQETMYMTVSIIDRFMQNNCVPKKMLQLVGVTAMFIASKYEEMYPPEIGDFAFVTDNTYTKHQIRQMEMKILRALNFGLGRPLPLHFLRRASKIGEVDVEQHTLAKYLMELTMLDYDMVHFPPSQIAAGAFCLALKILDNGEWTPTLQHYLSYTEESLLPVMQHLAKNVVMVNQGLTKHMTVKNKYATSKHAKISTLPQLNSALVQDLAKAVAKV

cdk4/D = cdk4/D (Homo sapiens, UniProt P11802); test: Cyclin-Dependent Kinase 4 (cdk4) Assay; assay type: biochemical; conditions: read-out: cdk4/D IC50
Sequence of cdk4/D (P11802 whole entry): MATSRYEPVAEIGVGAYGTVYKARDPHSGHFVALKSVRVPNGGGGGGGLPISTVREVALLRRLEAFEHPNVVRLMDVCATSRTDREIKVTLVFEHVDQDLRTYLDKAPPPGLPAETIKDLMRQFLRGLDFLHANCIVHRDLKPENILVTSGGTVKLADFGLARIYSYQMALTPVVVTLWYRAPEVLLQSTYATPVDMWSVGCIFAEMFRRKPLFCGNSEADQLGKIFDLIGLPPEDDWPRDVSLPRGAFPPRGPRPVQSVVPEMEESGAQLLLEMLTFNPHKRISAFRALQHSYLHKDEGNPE
Sequence of cdk4/D (P24385 whole entry, further chain): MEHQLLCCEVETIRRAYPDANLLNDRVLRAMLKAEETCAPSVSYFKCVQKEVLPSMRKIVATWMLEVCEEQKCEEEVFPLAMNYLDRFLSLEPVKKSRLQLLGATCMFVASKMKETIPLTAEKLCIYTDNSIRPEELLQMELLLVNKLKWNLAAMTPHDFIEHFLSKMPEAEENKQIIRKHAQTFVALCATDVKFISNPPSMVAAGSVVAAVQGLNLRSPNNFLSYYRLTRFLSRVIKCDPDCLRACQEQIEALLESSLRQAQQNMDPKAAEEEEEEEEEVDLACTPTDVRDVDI

| Molecule | IC50 (cdk2/cyclinA; cdk2/A IC50) | IC50 (Cdk5/p25) | IC50 (cdk2/cyclinE; cdk2/E IC50) | IC50 (cdc2/cyclinB) | IC50 (cdk4/D) | IC50 (cdk2/cyclinA; read-out: cdk2/A IC50) | IC50 (cdk2/cyclinE; read-out: cdk2/E IC50) | IC50 (cdc2/cyclinB; read-out: cdk1/B IC50) |
| --- | --- | --- | --- | --- | --- | --- | --- | --- |
| CC(C)n1c(=O)ccc2cnc(Nc3cccc(S(N)(=O)=O)c3)nc21 [Example 430, 3-(8-Isopropyl-7-oxo-7,8-dihydro-pyrido[2,3-d]pyrimidin-2-ylamino)-benzenesulfonamide] | 240 nM | 15 nM | 95 nM | 180 nM | 35 nM | – | – | – |
| CCCn1c(=O)ccc2cnc(Nc3ccc(S(N)(=O)=O)cc3)nc21 [Example 317, 4-(7-Oxo-8-propyl-7,8-dihydro-pyrido[2,3-d]pyrimidin-2-ylamino)-benzenesulfonamide] | 81.7 nM | 42.3 nM | 31.8 nM | 88.4 nM | 978 nM | – | – | – |
| O=c1ccc2cnc(Nc3cc(Cl)c(O)c(Cl)c3)nc2n1CC1CC1 [Example 568, 8-Cyclopropylmethyl-2-(3,5-dichloro-4-hydroxy-phenylamino)-8H-pyrido[2,3-d]pyrimidin-7-one] | 102 nM | 102 nM | 43 nM | 101 nM | 920 nM | – | – | – |
| Cc1cc(Nc2ncc3ccc(=O)n(C(C)C)c3n2)cc(C)c1O [Example 441, 2-(4-Hydroxy-3,5-dimethyl-phenylamino)-8-isopropyl-8H-pyrido[2,3-d]pyrimidin-7-one] | 290 nM | 150 nM | 470 nM | 290 nM | 890 nM | – | – | – |
| CCCCn1c(=O)ccc2cnc(Nc3ccc(C)c(Cl)c3)nc21 [Example 400, 8-Butyl-2-(3-chloro-4-methyl-phenylamino)-8H-pyrido[2,3-d]pyrimidin-7-one] | 480 nM | 38 nM | 56 nM | 120 nM | 170 nM | – | – | – |
| CCCn1c(=O)ccc2cnc(Nc3ccc4[nH]ncc4c3)nc21 [Example 324, 2-(1H-Indazol-5-ylamino)-8-propyl-8H-pyrido[2,3-d]pyrimidin-7-one] | 145 nM | 32 nM | 53 nM | 82.5 nM | 214 nM | – | – | – |
| CCC(CC)n1c(=O)ccc2cnc(Nc3ccc(F)c(F)c3)nc21 [Example 509, 2-(3,4-Difluoro-phenylamino)-8-(I-ethyl-propyl)-8H-pyrido[2,3-d]pyrimidin-7-one] | 240 nM | 26 nM | 64 nM | 190 nM | 98 nM | – | – | – |
| CCC(C)n1c(=O)ccc2cnc(Nc3ccc(O)cc3F)nc21 (centres unmarked) [Example 451, 8-sec-Butyl-2-(2-fluoro-4-hydroxy-phenylamino)-8H-pyrido[2,3-d]pyrimidin-7-one] | 555 nM | 133 nM | 240 nM | 590 nM | 450 nM | – | – | – |
| 8-Cyclopentyl-2-(3-fluoro-4-methoxy-phenylamino)-8H-pyrido[2,3-d]pyrimidin-7-one [Example 542] | – | 7.7 nM | – | – | 9.5 nM | 75 nM | 35 nM | 85 nM |
| CCC(C)n1c(=O)ccc2cnc(Nc3ccc(C)c(Cl)c3)nc21 (centres unmarked) [Example 467, 8-sec-Butyl-2-(3-chloro-4-methyl-phenylamino)-8H-pyrido[2,3-d]pyrimidin-7-one] | 270 nM | 8 nM | 97 nM | 190 nM | 96 nM | – | – | – |
| O=c1ccc2cnc(Nc3ccc4nn[nH]c4c3)nc2n1CC(F)(F)F [Example 595, 2-(1H-Benzotriazol-5-ylamino)-8-(2,2,2-trifluoro-ethyl)-8H1-pyrido[2,3-d]pyrimidin-7-one] | 1450 nM | 155 nM | 510 nM | 2000 nM | 2000 nM | – | – | – |
| CCn1c(=O)ccc2cnc(Nc3ccc(F)c(C(F)(F)F)c3)nc21 [Example 293, 8-Ethyl-2-(4-fluoro-3-trifluoromethyl-phenylamino)-8H-pyrido[2,3-d]pyrimidin-7-one] | 1500 nM | 40 nM | 250 nM | 430 nM | 2000 nM | – | – | – |

More lines, in order of falling IC50 (cdk2/cyclinA; cdk2/A IC50), values ahead:

| IC50 (cdk2/cyclinA; cdk2/A IC50) | IC50 (Cdk5/p25) | IC50 (cdk2/cyclinE; cdk2/E IC50) | IC50 (cdc2/cyclinB) | IC50 (cdk4/D) | Molecule | IC50 (cdk2/cyclinA; read-out: cdk2/A IC50) | IC50 (cdk2/cyclinE; read-out: cdk2/E IC50) | IC50 (cdc2/cyclinB; read-out: cdk1/B IC50) |
| --- | --- | --- | --- | --- | --- | --- | --- | --- |
| 1600 nM | 310 nM | 260 nM | 560 nM | 3500 nM | COc1cc(Nc2ncc3ccc(=O)n(CC4CC4)c3n2)cc(OC)c1OC [Example 569, 8-Cyclopropylmethyl-2-(3,4,5-trimethoxy-phenylamino)-8H-pyrido[2,3-d]pyrimidin-7-one] | – | – | – |
| 1310 nM | 590 nM | 417 nM | 1050 nM | 2050 nM | CCCn1c(=O)ccc2cnc(Nc3ccc(F)cc3)nc21 [Example 332, 2-(4-Fluoro-phenylamino)-8-propyl-8H-pyrido[2,3-d]pyrimidin-7-one] | – | – | – |
| 1100 nM | 770 nM | 1200 nM | 1600 nM | 910 nM | CCCn1c(=O)ccc2cnc(Nc3ccc(O)c(C)c3)nc21 [Example 354, 2-(4-Hydroxy-3-methyl-phenylamino)-8-propyl-8H-pyrido[2,3-d]pyrimidin-7-one] | – | – | – |
| 830 nM | 160 nM | 430 nM | 590 nM | 160 nM | CCCn1c(=O)ccc2cnc(Nc3ccc(N(C)C(C)=O)cc3)nc21 [Example 345, N-Methyl-N-[4-(7-oxo-8-propyl-7,8-dihydro-pyrido[2,3-d]pyrimidin-2-ylamino)-phenyl]-acetamide] | – | – | – |
| 830 nM | 120 nM | 320 nM | 600 nM | 140 nM | CCn1c(=O)ccc2cnc(Nc3ccc(F)c(F)c3)nc21 [Example 301, 2-(3,4-Difluoro-phenylamino)-8-ethyl-8H-pyrido[2,3-d]pyrimidin-7-one] | – | – | – |
| 520 nM | 140 nM | 270 nM | 290 nM | 80 nM | CC(=O)Nc1cc(Nc2ncc3ccc(=O)n(CC4CC4)c3n2)ccc1C#N [Example 574, N-[2-Cyano-5-(8-cyclopropylmethyl-7-oxo-7,8-dihydro-pyrido[2,3-d]pyrimidin-2-ylamino)-phenyl]-acetamide] | – | – | – |
| 440 nM | 72 nM | 127 nM | 102 nM | 230 nM | CCC(CC)n1c(=O)ccc2cnc(Nc3ccc(NC(=O)OC(C)(C)C)cc3)nc21 [Example 494, {4-[8-(1-Ethyl-propyl)-7-oxo-7,8-dihydro-pyrido[2,3-d]pyrimidin-2-ylamino]-phenyl}-carbamic acid tert-butyl ester] | – | – | – |
| 425 nM | 160 nM | 275 nM | 320 nM | 315 nM | CCCn1c(=O)ccc2cnc(Nc3ccc(OC)cc3)nc21 [Example 329, 2-(4-Methoxy-phenylamino)-8-propyl-8H-pyrido[2,3-d]pyrimidin-^7-one] | – | – | – |
| 310 nM | 81 nM | 75 nM | 290 nM | 250 nM | CCCCn1c(=O)ccc2cnc(Nc3ccc(F)c(F)c3)nc21 [Example 397, 8-Butyl-2-(3,4-difluoro-phenylamino)-8H-pyrido[2,3-d]pyrimidin-7-one] | – | – | – |
| 263 nM | 177 nM | 200 nM | 273 nM | 180 nM | CC(C)n1c(=O)ccc2cnc(Nc3ccc(NC(=O)OC(C)(C)C)cc3)nc21 [Example 411, [4-(8-Isopropyl-7-oxo-7,8-dihydro-pyrido[2,3-d]pyrimidin-2-ylamino)-phenyl]-carbamic acid tert-butyl ester] | – | – | – |
| 230 nM | 23 nM | 39 nM | 73 nM | 93 nM | CCCCn1c(=O)ccc2cnc(Nc3ccc4c(c3)CCCC4=O)nc21 [Example 403, 8-Butyl-2-(5-oxo-5,6,7,8-tetrahydro-naphthalen-2-ylamino)-8H-pyrido[2,3-d]pyrimidin-7-one] | – | – | – |
| 170 nM | 200 nM | 61.7 nM | 310 nM | 710 nM | O=c1ccc2cnc(Nc3cc(Cl)c(O)c(Cl)c3)nc2n1C1CCCC1 [Example 540, 8-Cyclopentyl-2-(3,5-dichloro-4-hydroxy-phenylamino)-8H-pyrido[2,3-d]pyrimidin-7-one] | – | – | – |
| 170 nM | 9.7 nM | 170 nM | 160 nM | 66 nM | COc1ccc(Nc2ncc3ccc(=O)n(C(C)C)c3n2)cc1F [Example 422, 2-(3-Fluoro-4-methoxy-phenylamino)-8-isopropyl-8H-pyrido[2,3-d]pyrimidin-7-one] | – | – | – |
| 170 nM | 170 nM | 200 nM | 120 nM | 490 nM | Cc1cc(Nc2ncc3ccc(=O)n(CC4CC4)c3n2)cc(C)c1O [Example 586, 8-Cyclopropylmethyl-2-(4-hydroxy-3,5-dimethyl-phenylamino)-8H-pyrido[2,3-d]pyrimidin-7-one] | – | – | – |
| 135 nM | 44.5 nM | 88 nM | 245 nM | 152 nM | CC(C)n1c(=O)ccc2cnc(Nc3ccc4[nH]nnc4c3)nc21 [Example 410, 2-(1H-Benzotriazol-5-ylamino)-8-isopropyl-8H-pyrido[2,3-d]pyrimidin-7-one] | – | – | – |
| 74 nM | 50 nM | 100 nM | 170 nM | 51 nM | N#Cc1ccc(Nc2ncc3ccc(=O)n(C4CCCC4)c3n2)cc1 [Example 531, 4-(8-Cyclopentyl-7-oxo-7,8-dihydro-pyrido[2,3-d]pyrimidin-2-ylamino)-benzonitrile] | – | – | – |
